# “And” between values parts separate entries of the source, which are not always exact repeats. Equal entries are not always repeated.
# How the values were obtained:
# [1] = target: T1, p75^NTR TMD I252A (Homo sapiens, UniProt P08138, I252A); experiment: AraTM assay, I252A mutant p75NTR TMD; assay type: cell-based; conditions: for GFP/OD630, Mean / GFP/OD630, individual replicates: I252A
# T1 construct: Comparison of wild-type (WT) p75^NTR TMD and I252A, P253G and V254A mutants in the AraTM assay; expressed in transfected cells; host or cells: E. coli AS19 (LPS-negative)
# T1 sequence (P08138 250-275 I252A): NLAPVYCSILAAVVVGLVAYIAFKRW
# [2] = target: T2, p75^NTR TMD P253G (Homo sapiens, UniProt P08138, P253G); experiment: AraTM assay, P253G mutant p75NTR TMD; assay type: cell-based; conditions: for GFP/OD630, Mean / GFP/OD630, individual replicates: P253G
# T2 construct: Comparison of wild-type (WT) p75^NTR TMD and I252A, P253G and V254A mutants in the AraTM assay; expressed in transfected cells; host or cells: E. coli AS19 (LPS-negative)
# T2 sequence (P08138 251-272 P253G limits assumed): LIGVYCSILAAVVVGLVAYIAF
# [3] = system: A875 melanoma cells (NT); experiment: Cleaved PARP western blot (apoptosis), A875 NT; assay type: cell-based, human
# Experimental: One of the main biological readouts of p75^NTR activity in response to neurotrophins is the induction of caspase-mediated apoptotic cell death (Underwood and Coulson, [2008]; Friedman, [2010]; Ibáñez and Simi, [2012]).
# COS7, A875 and WM115 cell lines were cultured under standard conditions in DMEM supplemented with 10% fetal calf serum, 100 units/ml penicillin, […] streptomycin, and 2.5 mM glutamine. All cells were authenticated and tested for mycoplasma contamination. A875-NT (control) and A875 shp75 (knockdown) cell lines were described previously (Goh et al, [2018]).
# [4] = system: A875 shp75 cells; experiment: Wound healing cell motility assay, A875 shp75; assay type: cell-based, human
# Experimental: For wound healing assay, cells were grown until confluency and subjected to a wound across the cell mono-layer. Cells were then incubated with serum-free media either with DMSO or a small molecule (with or without 5 µM Q_VD_poH) and imaged at specific time-points. Cell migration is reflected as fold change in wound area over time.
structure (smiles),measurement,setting,value
Cc1cccc(-c2cncc(Nc3ccc(Br)c(Cl)c3Cl)n2)c1C [Np75-4A22],effect of Ile252 mutation on compound activity in AraTM assay,[1],affected
same,"GFP/OD630, Mean",[1]; compound 5 μM,0.99
same,"GFP/OD630, individual replicates",[1]; compound 5 μM,0.93 and 1.08 and 0.97
same,"GFP/OD630, Mean",[1]; compound 10 μM,0.85
same,"GFP/OD630, individual replicates",[1]; compound 10 μM,0.76 and 0.91 and 0.89
same,"GFP/OD630, Mean",[1]; compound 20 μM,0.84
same,"GFP/OD630, individual replicates",[1]; compound 20 μM,1.01 and 0.83 and 0.69
same,"GFP/OD630, Mean",[1]; compound 30 μM,0.73
same,"GFP/OD630, individual replicates",[1]; compound 30 μM,0.91 and 0.67 and 0.61
same,"GFP/OD630, Mean",[1]; compound 40 μM,0.72
same,"GFP/OD630, individual replicates",[1]; compound 40 μM,0.77 and 0.62 and 0.76
same,effect of Pro253 mutation on compound activity in AraTM assay,[2],unaffected
same,"GFP/OD630, Mean",[2]; compound 5 μM,0.71
same,"GFP/OD630, individual replicates",[2]; compound 5 μM,0.58 and 0.64 and 0.9
same,"GFP/OD630, Mean",[2]; compound 10 μM,0.74
same,"GFP/OD630, individual replicates",[2]; compound 10 μM,0.6 and 0.87 and 0.74
same,"GFP/OD630, Mean",[2]; compound 20 μM,0.58
same,"GFP/OD630, individual replicates",[2]; compound 20 μM,0.43 and 0.66 (2×)
same,"GFP/OD630, Mean",[2]; compound 30 μM,0.52
same,"GFP/OD630, individual replicates",[2]; compound 30 μM,0.72 and 0.32 and 0.53
same,"GFP/OD630, Mean",[2]; compound 40 μM,0.39
same,"GFP/OD630, individual replicates",[2]; compound 40 μM,0.36 (2×) and 0.44
same,"Cleaved PARP normalized to DMSO, individual replicates",[3]; 0.5uM,5.004 and 2.098 and 0.920
same,"Cleaved PARP/actin, individual replicates",[3]; 0.5uM,0.036 and 0.018 and 0.00739
same,"Cleaved PARP normalized to DMSO, Average",[3]; 0.5μM,2.674
same,"Cleaved PARP normalized to DMSO, individual replicates",[3]; 1uM,1.063 and 1.446 and 0.643
same,"Cleaved PARP/actin, individual replicates",[3]; 1uM,0.008 and 0.012 and 0.005
same,"Cleaved PARP normalized to DMSO, Average",[3]; 1μM,1.051
same,"Cleaved PARP normalized to DMSO, individual replicates",[3]; 2uM,0.550 and 3.611 and 2.270
same,"Cleaved PARP/actin, individual replicates",[3]; 2uM,0.004 and 0.031 and 0.018
same,"Cleaved PARP normalized to DMSO, Average",[3]; 2μM,2.144
same,"Cleaved PARP normalized to DMSO, individual replicates",[3]; 5uM,1.726 and 2.128 and 2.224
same,"Cleaved PARP/actin, individual replicates",[3]; 5uM,0.013 and 0.018
same,"Cleaved PARP normalized to DMSO, Average",[3]; 5μM,2.026
same,apoptosis (PARP cleavage),[3]; submicromolar and low micromolar range (0.5 to 5 µM),did not induce apoptosis
same,Wound area (Fold),"[4]; A875 shp75, 1uM, 0 h, Mean",1.000 Fold
same,Wound area (Fold),"[4]; A875 shp75, 1uM, 0 h, n1",0.845 Fold
same,Wound area (Fold),"[4]; A875 shp75, 1uM, 0 h, n2",1.081 Fold
same,Wound area (Fold),"[4]; A875 shp75, 1uM, 0 h, n3",1.074 Fold
same,Wound area (Fold),"[4]; A875 shp75, 1uM, 3 h, Mean",0.931 Fold
same,Wound area (Fold),"[4]; A875 shp75, 1uM, 3 h, n1",0.916 Fold
same,Wound area (Fold),"[4]; A875 shp75, 1uM, 3 h, n2",0.940 Fold
same,Wound area (Fold),"[4]; A875 shp75, 1uM, 3 h, n3",0.936 Fold
same,Wound area (Fold),"[4]; A875 shp75, 1uM, 6 h, Mean",0.862 Fold
same,Wound area (Fold),"[4]; A875 shp75, 1uM, 6 h, n1",0.849 Fold
same,Wound area (Fold),"[4]; A875 shp75, 1uM, 6 h, n2",0.873 Fold
same,Wound area (Fold),"[4]; A875 shp75, 1uM, 6 h, n3",0.864 Fold
same,Wound area (Fold),"[4]; A875 shp75, 1uM, 9 h, Mean",0.807 Fold
same,Wound area (Fold),"[4]; A875 shp75, 1uM, 9 h, n1",0.787 Fold
same,Wound area (Fold),"[4]; A875 shp75, 1uM, 9 h, n2",0.829 Fold
same,Wound area (Fold),"[4]; A875 shp75, 1uM, 9 h, n3",0.805 Fold
same,Wound area (Fold),"[4]; A875 shp75, 1uM, 12 h, Mean",0.763 Fold
same,Wound area (Fold),"[4]; A875 shp75, 1uM, 12 h, n1",0.742 Fold
same,Wound area (Fold),"[4]; A875 shp75, 1uM, 12 h, n2",0.785 Fold
same,Wound area (Fold),"[4]; A875 shp75, 1uM, 12 h, n3",0.763 Fold
same,Wound area (Fold),"[4]; A875 shp75, 1uM, 15 h, Mean",0.718 Fold
same,Wound area (Fold),"[4]; A875 shp75, 1uM, 15 h, n1",0.696 Fold
same,Wound area (Fold),"[4]; A875 shp75, 1uM, 15 h, n2",0.752 Fold
same,Wound area (Fold),"[4]; A875 shp75, 1uM, 15 h, n3",0.705 Fold
same,Wound area (Fold),"[4]; A875 shp75, 1uM, 18 h, Mean",0.698 Fold
same,Wound area (Fold),"[4]; A875 shp75, 1uM, 18 h, n1",0.664 Fold
same,Wound area (Fold),"[4]; A875 shp75, 1uM, 18 h, n2",0.709 Fold
same,Wound area (Fold),"[4]; A875 shp75, 1uM, 18 h, n3",0.721 Fold
same,Wound area (Fold),"[4]; A875 shp75, 1uM, 21 h, Mean",0.669 Fold
same,Wound area (Fold),"[4]; A875 shp75, 1uM, 21 h, n1",0.640 Fold
same,Wound area (Fold),"[4]; A875 shp75, 1uM, 21 h, n2",0.695 Fold
same,Wound area (Fold),"[4]; A875 shp75, 1uM, 21 h, n3",0.673 Fold
same,Wound area (Fold),"[4]; A875 shp75, 1uM, 24 h, Mean",0.638 Fold
same,Wound area (Fold),"[4]; A875 shp75, 1uM, 24 h, n1",0.601 Fold
same,Wound area (Fold),"[4]; A875 shp75, 1uM, 24 h, n2",0.671 Fold
same,Wound area (Fold),"[4]; A875 shp75, 1uM, 24 h, n3",0.643 Fold
same,Wound area (Fold),"[4]; A875 shp75, 2uM, 0 h, Mean",1.000 Fold
same,Wound area (Fold),"[4]; A875 shp75, 2uM, 0 h, n1",0.9754 Fold
same,Wound area (Fold),"[4]; A875 shp75, 2uM, 0 h, n2",1.0649 Fold
same,Wound area (Fold),"[4]; A875 shp75, 2uM, 0 h, n3",0.9597 Fold
same,Wound area (Fold),"[4]; A875 shp75, 2uM, 3 h, Mean",0.910 Fold
same,Wound area (Fold),"[4]; A875 shp75, 2uM, 3 h, n1",0.9076 Fold
same,Wound area (Fold),"[4]; A875 shp75, 2uM, 3 h, n2",0.9176 Fold
same,Wound area (Fold),"[4]; A875 shp75, 2uM, 3 h, n3",0.9063 Fold
same,Wound area (Fold),"[4]; A875 shp75, 2uM, 6 h, Mean",0.853 Fold
same,Wound area (Fold),"[4]; A875 shp75, 2uM, 6 h, n1",0.8581 Fold
same,Wound area (Fold),"[4]; A875 shp75, 2uM, 6 h, n2",0.8655 Fold
same,Wound area (Fold),"[4]; A875 shp75, 2uM, 6 h, n3",0.836 Fold
same,Wound area (Fold),"[4]; A875 shp75, 2uM, 9 h, Mean",0.814 Fold
same,Wound area (Fold),"[4]; A875 shp75, 2uM, 9 h, n1",0.821 Fold
same,Wound area (Fold),"[4]; A875 shp75, 2uM, 9 h, n2",0.8359 Fold
same,Wound area (Fold),"[4]; A875 shp75, 2uM, 9 h, n3",0.7843 Fold
same,Wound area (Fold),"[4]; A875 shp75, 2uM, 12 h, Mean",0.777 Fold
same,Wound area (Fold),"[4]; A875 shp75, 2uM, 12 h, n1",0.789 Fold
same,Wound area (Fold),"[4]; A875 shp75, 2uM, 12 h, n2",0.7939 Fold
same,Wound area (Fold),"[4]; A875 shp75, 2uM, 12 h, n3",0.7491 Fold
same,Wound area (Fold),"[4]; A875 shp75, 2uM, 15 h, Mean",0.752 Fold
same,Wound area (Fold),"[4]; A875 shp75, 2uM, 15 h, n1",0.7699 Fold
same,Wound area (Fold),"[4]; A875 shp75, 2uM, 15 h, n2",0.7822 Fold
same,Wound area (Fold),"[4]; A875 shp75, 2uM, 15 h, n3",0.7049 Fold
same,Wound area (Fold),"[4]; A875 shp75, 2uM, 18 h, Mean",0.727 Fold
same,Wound area (Fold),"[4]; A875 shp75, 2uM, 18 h, n1",0.7451 Fold
same,Wound area (Fold),"[4]; A875 shp75, 2uM, 18 h, n2",0.762 Fold
same,Wound area (Fold),"[4]; A875 shp75, 2uM, 18 h, n3",0.6733 Fold
same,Wound area (Fold),"[4]; A875 shp75, 2uM, 21 h, Mean",0.692 Fold
same,Wound area (Fold),"[4]; A875 shp75, 2uM, 21 h, n1",0.7162 Fold
same,Wound area (Fold),"[4]; A875 shp75, 2uM, 21 h, n2",0.7095 Fold
same,Wound area (Fold),"[4]; A875 shp75, 2uM, 21 h, n3",0.6489 Fold
same,Wound area (Fold),"[4]; A875 shp75, 2uM, 24 h, Mean",0.665 Fold
same,Wound area (Fold),"[4]; A875 shp75, 2uM, 24 h, n1",0.7012 Fold
same,Wound area (Fold),"[4]; A875 shp75, 2uM, 24 h, n2",0.6688 Fold
same,Wound area (Fold),"[4]; A875 shp75, 2uM, 24 h, n3",0.6256 Fold
